According to patent US7964539B2, “Well treatment” (Statoil ASA, priority 2004, dated 2011):
In brackets after ≈: the same amount, converted by molar mass.

Key:
[1] = tested on: algae; experiment: Algae toxicity (IC50 algae); assay type: cell-based
Source text: (§1) Organosilanes for use in the invention include, for example, organosilane hydrides, organosilane alkoxides and organosilane amines. Organosilane compounds have the advantage that they are typically oil-soluble and have the necessary reactivity with water. […] Organosilanes for use in the invention preferably have a biodegradability of at least 60%.

[2] = tested on: daphnia; experiment: Daphnia toxicity (EC50 daphnia); assay type: in vivo
Source text: as §1

[3] = Fish toxicity (LC50 fish); conditions: in vivo
Source text: as §1

[4] = Biodegradability, tested according to OECD 306
Source text: as §1

Structure (SMILES)	IC50 [1] [µg/mL]	EC50 [2] [µg/mL]	LC50 [3] [µg/mL]	biodegradability [4] [%]
CCO[Si](CCCN)(OCC)OCC [DYNASYLAN AMEO, 3-amino-propyltriethoxysilane]	603 (≈ 2720 µM)	331 (≈ 1500 µM)	934 (≈ 4220 µM)	67
CCO[Si](CCCNCCC[Si](OCC)(OCC)OCC)(OCC)OCC [DYNASYLAN bis-AMEO, bis(triethoxysilylpropyl)amine]	125 (≈ 294 µM)	> 200	> 200	64.5
